Data on three molecules can be found in US20220244245A1, “A METHOD OF PROFILING THE ENERGETIC METABOLISM OF A POPULATION OF CELLS” (INSERM (Institut National de la Santé et de la Recherche …, priority 2019, published 2022).

The test system of one test is MEFs. Kind of test: ATP measurement (Cell titer-Glo luminescence) in MEFs. Format: cell-based, mouse. On the procedure: 20×104 MEFs were seeded in 100 µl of 5% FCS DMEM culture media ON in opaque 96 well plates. After, 100 ul of Cell titer-Glo luminiscence ATP reconstituted buffer and substrate (Promega, Cat. No. G7570) was added to each well and Luminiscence was measured after 10 minutes following manufacturer instructions. A standard curve with ATP was performed using the same kit and following manufacturer instructions.

The next test relates to Flt3L-bmDC. Kind of test: ZENITH: protein synthesis (puromycin incorporation, flow cytometry) in Flt3L-bmDC subsets, WT and PERK KO. Format: cell-based, mouse. As to conditions: short 2-DG treatment; DC subsets from WT PERKflox/flox and CD11c-CRE PERKflox/flox (PERK KO). On the procedure:
Mouse splenocytes from WT C57BL/6J (Jackson) or PERK KO C57BL/6J background mice (Zhang et al., 2002) were cultured in DMEM containing 5% of Fetal Calf Serum (FCS) and 50 μM of 2-Mercaptoethanol (Mouse cells culture media, MCCM) at 37° C. 5% of CO2 GM-CSF BM-derived dendritic cells (GM-bmDCs) were differentiated in vitro from the bone marrow of 6-8-week-old male mice, using GM-CSF, produced by J558L cells. Bone marrow progenitors were plated at 0.8×10^6 cells/ml, 5 ml/well in 6-well plates, and cultivated with RPMI (GIBCO), 5% FCS (Sigma-Aldrich), 20 μg/ml gentamycin (Sigma-Aldrich), 50 μM β-mercaptoethanol (VWR), and GM-CSF. The medium was replaced every 2 days; BM-derived DCs were used for experiments at day 6. Similarly, FLT3L BM-derived dendritic cells (FLT3L-bmDCs) were differentiated by adding FLT3L to RPMI, 10% of Fetal Calf Serum (FCS) and 50 μM of 2-Mercaptoethanol (Mouse cells culture media, MCCM) during 6 days at 37° C. 5% of CO2. To obtain splenocytes, eight weeks old wild type C57BL/6J mice were sacrificed by cervical dislocation and splenectomized. Single cells suspentions from the spleens were generated and cultured in MCCM as previously described. […]
Flow cytometry was conducted using BD LSR II and BD LSR Fortessa X-20 machine (BD Biosciences™) and data were analyzed with FlowJo (Tree Star™) and/or Cytobank. […]
In general terms: A flow cytometer gives signals particle by particle.

Regarding `CC[C@H]1/C=C/C=C/C[C@@H](C)[C@H](O)[C@@](C)(O)C(=O)[C@@H](C)[C@H](O)[C@@H](C)C(=O)[C@@H](C)[C@H](O)[C@@H](C)/C=C/C(=O)O[C@@H]2[C@H](C)[C@H](CC1)O[C@]1(CC[C@H](C)[C@H](C[C@@H](C)O)O1)[C@H]2C` [Oligomycin], in the test on MEFs (MEFs treated 20-30 minutes with the metabolic inhibitor, FIGS. 3A and 3B), the “levels of ATP” value was “unchanged”.
In the case of `C[C@@H]1C[C@@H]([C@H](O)CC2CC(=O)NC(=O)C2)C(=O)[C@@H](C)C1` [CHX, Cycloheximide], the “pool of ATP” value with MEFs (MEFs, added on top of Oligo+2-DG, 5 minutes of treatment, compared to Oligo+2-DG treatment (Co), FIG. 2A) is on record as “significantly higher”.
Regarding `O=CC[C@@H](O)[C@H](O)[C@H](O)CO` [2-DG, 2-Deoxy-D-Glucose], the “protein synthesis in response to 2-DG” value in the test on Flt3L-bmDC was “decrease protein synthesis”.
